Measurements as given in patent publication US20260209260A1, “VECTORIZED NHC IRIDIUM(III) COMPLEXES AND USE THEREOF IN PHOTODYNAMIC THERAPY AND/OR DIAGNOSTIC” (CENTRE NATIONAL DE LA RECHERCHE SCIENTIFIQUE, priority 2022, published 2026).
“And” between values parts separate entries of the source, which are not always exact repeats. Identical values can stand only once. Like-named read-outs stand apart in the source and are kept apart here.

Assays:
[1] = tested on: non-tumor cells (NIH-3T3 and MC3T3); assay: Cell viability assay (MTT), summary over the non-tumor models; type: cell-based, Murine; conditions: blue light 458 nm; read-out: GI50 mean over non-tumor models, irradiated
Procedure: (§1) Cells were grown in humidified incubators at 37° C. in 5% CO2. Murine MC3T3 osteoblast and NIH-3T3 fibroblast cells-used as non-tumor cell models-were cultured in a-MEM medium and DMEM medium supplemented with 10% fetal bovine serum (FBS) and 1% Penicillin/Streptomycin (P/S) antibiotics, respectively. Human T24 bladder, MGHU3 bladder, Scaber bladder, A549 lung, MCF7 breast, MiaPaCa2 pancreas cancer cells were cultured in DMEM medium supplemented with 10% FBS and 1% P/S antibiotics. […] Human Hela cervix and HepG2 liver cancer cells were cultured EMEM medium supplemented with 10% FBS and 1% P/S antibiotics.
(§2) MTT reagent (3-(4,5-dimethylthiazol-2-yl)-2,5-diphenyltetrazolium bromide) was used to determine cell death as originally described by Mosmann. Briefly, cells were seeded from 5,000 to 10,000 cells/well in 24-well plates (1 mL) depending on the cell type and allowed to attach overnight. The complexes were prepared in DMSO. The concentration of the complexes was calculated based on the elemental composition of the complexes determined by the elemental analyses. All cell viability experiments were carried out with a fixed concentration of 0.1% (v/v) DMSO. After 72 h of treatment, cells were incubated at 37° C. and 5% CO2 with 25 μL of MTT solution (5 mg/ml; Sigma-Aldrich) in 24-well plates for 3 to 4 h. After solubilization with 500 μL of DMSO, formazan was quantified spectrophotometrically with a microplate reader at 570 nm absorbance (ClarioSTAR, BMG LabTech). […] All the results were calculated from data obtained in at least three independent experiments performed in triplicate.
(§3) Two sets of experiments were conducted in parallel for each complex to be studied:
(§4) 1. The cells were incubated with the different complexes (in the dark) for 72 h.
(§5) 2. The cells were incubated for 8 h with the different complexes (in the dark), then irradiated for 10 min, followed by an incubation in the dark up to 72 h.

[2] = tested on: cancer cells (all tumor cell lines tested); assay: Cell viability assay (MTT), summary over the cancer cell lines tested; type: cell-based, Human; conditions: for PI values, mean over cancer cells / PI values, median over cancer cells: dark vs blue light 458 nm
Procedure: as §1, §2, §3, §4, §5

[3] = tested on: PC-3 prostate cancer cells (PSMA-negative); assay: Cell viability assay (MTT), dark and blue light; type: cell-based, Human; conditions: for Photosensitizing index (PI): PC3, dark vs blue light
How it was run: (§6)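 Cells seeded 5,000–10,000/well, treated in 0.1% (v/v) DMSO either 72 h in dark or 8 h dark, 10 min 458 nm blue LED irradiation (9.6 W), then dark to 72 h. Viability by MTT, absorbance 570 nm; at least three independent experiments in triplicate.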

MCF7 breast cancer cells = assay: Cell viability assay (MTT), dark and blue light; type: cell-based, Human; conditions: for Photosensitizing index (PI) MCF7: dark vs blue light 458 nm
How it was run: as §6

[4] = tested on: Scaber bladder cancer cells; assay: Cell viability assay (MTT), dark and blue light; type: cell-based, Human; conditions: for Photosensitizing index (PI) Scaber: dark vs blue light 458 nm
How it was run: as §6

A549 lung cancer cells = assay: Cell viability assay (MTT), dark and blue light; type: cell-based, Human; conditions: for Photosensitizing index (PI) A549: dark vs blue light 458 nm; for SI (vs NIH-3T3) A549 Blue: blue light 458 nm
How it was run: (§7)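 MTT read-out at 570 nm after DMSO solubilization of formazan, 3–4 h MTT at 37 °C, 5% CO2. Treatment lasted 72 h, either fully in the dark or with 10 min irradiation after 8 h of dark incubation. Final DMSO fixed at 0.1% (v/v).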

T24 bladder cancer cells = assay: Cell viability assay (MTT), dark and blue light; type: cell-based, Human; conditions: for Photosensitizing index (PI) T24: dark vs blue light 458 nm
How it was run: as §7

[5] = 8 h in the dark, blue light 458 nm 10 min, then dark up to 72 h, read-out: GI50 PC-3 Blue
[6] = PC3, blue light, read-out: GI50
[7] = in the dark, 72 h, read-out: GI50 PC-3 Dark
[8] = 8 h in the dark, blue light 458 nm 10 min, then dark up to 72 h, read-out: GI50 MCF7 Blue
[9] = in the dark, 72 h, read-out: GI50 MCF7 Dark
[10] = 8 h in the dark, blue light 458 nm 10 min, then dark up to 72 h, read-out: GI50 Scaber Blue
[11] = in the dark, 72 h, read-out: GI50 Scaber Dark
[12] = 8 h in the dark, blue light 458 nm 10 min, then dark up to 72 h, read-out: GI50 A549 Blue
[13] = in the dark, 72 h, read-out: GI50 A549 Dark
[14] = 8 h in the dark, blue light 458 nm 10 min, then dark up to 72 h, read-out: GI50 T24 Blue
[15] = in the dark, 72 h, read-out: GI50 T24 Dark

Row | Structure (SMILES) | selectivity for cancer cells over non-tumor cells, in words [2] | PI values, mean over cancer cells [2] | PI values, median over cancer cells [2] | GI50 (MCF7 breast cancer cells; [8]) | Photosensitizing index (PI) MCF7 (MCF7 breast cancer cells) | GI50 (MCF7 breast cancer cells; [9]) | GI50 [4, 10] | SI (vs NIH-3T3) Scaber Blue ([4]; blue light 458 nm) | SI (vs MC3T3) Scaber Dark [4] | SI (vs NIH-3T3) Scaber Dark [4] | Photosensitizing index (PI) Scaber [4] | GI50 [4, 11] | GI50 (A549 lung cancer cells; [12]) | SI (vs MC3T3) A549 Dark (A549 lung cancer cells) | Photosensitizing index (PI) A549 (A549 lung cancer cells) | GI50 (A549 lung cancer cells; [13]) | GI50 (T24 bladder cancer cells; [14]) | Photosensitizing index (PI) T24 (T24 bladder cancer cells) | GI50 (T24 bladder cancer cells; [15]) | SI (vs NIH-3T3) MCF7 Blue (MCF7 breast cancer cells; blue light 458 nm) | also measured
1 | F[P-](F)(F)(F)(F)F.O=C(O)CC[C@H](NC(=O)N[C@@H](CCCCNC(=O)CCn1cc[n+]2[c]1[Ir-3]13([c]4ccccc4-c4sc5ccccc5[n+]41)([c]1ccccc1-c1sc4ccccc4[n+]13)[n+]1ccccc1-2)C(=O)O)C(=O)O [III-k] | most selective effects under irradiated conditions |  |  |  |  |  |  |  |  |  |  |  |  |  |  |  |  |  |  |  | GI50 [1]: 22.8 µM; GI50 [3, 5]: 2.1 µM; GI50 [3, 6]: 2.1 µM; Photosensitizing index (PI) [3]: 4.6; GI50 ([3]; PC3, dark, read-out: GI50): 9.6 µM; SI (vs NIH-3T3) PC-3 Blue ([3]; blue light 458 nm): 14.3; SI (vs MC3T3) PC-3 Dark ([3]; dark): 9.9; GI50 [3, 7]: 9.8 µM
2 | F[P-](F)(F)(F)(F)F.O=C(CCCC[C@@H]1SC[C@@H]2NC(=O)N[C@@H]21)NCCCn1cc[n+]2[c]1[Ir-3]13([c]4ccccc4-c4c5ccccc5cc[n+]41)([c]1ccccc1-c1c4ccccc4cc[n+]13)[n+]1ccccc1-2 [I-h] |  | 19.0 fold | 19.3 fold | 0.99 µM | 12.0 | 11.9 µM | 1 µM | 10.4 | 1.7 | 4.1 | 24.8 | 24.8 µM | 0.8 µM and 0.6 µM | 3.2 | 21.8 | 13.1 µM | 0.58 µM | 24.0 | 13.9 µM |  | SI (vs NIH-3T3) MCF7 Dark (MCF7 breast cancer cells): 8.6
3 | F[P-](F)(F)(F)(F)F.O=C(CCCC[C@@H]1SC[C@@H]2NC(=O)N[C@@H]21)NCCCn1cc[n+]2[c]1[Ir-3]13([c]4ccccc4-c4ccc5ccccc5[n+]41)([c]1ccccc1-c1ccc4ccccc4[n+]13)[n+]1ccccc1-2 [I-g] | most selective effects under irradiated conditions | 7.5 fold | 6.0 fold | 2.2 µM | 6.3 | 13.8 µM | 2.5 µM | 24.7 | 3.9 |  | 5.6 | 14.1 µM | 1.5 µM | 6.1 | 6.1 | 9.1 µM | 1.1 µM | 16.9 | 18.6 µM | 28.0 | SI (vs MC3T3) MCF7 Blue (MCF7 breast cancer cells; blue light 458 nm): 14.3; SI (vs MC3T3) MCF7 Dark (MCF7 breast cancer cells): 4.0; SI (vs NIH-3T3) A549 Blue (A549 lung cancer cells): 41.1; SI (vs NIH-3T3) A549 Dark (A549 lung cancer cells): 12.1; SI (vs NIH-3T3) T24 Blue (T24 bladder cancer cells; blue light 458 nm): 58.1
4 | COC(=O)c1ccc2[n+](c1)[Ir-3]13([c]4ccccc4-2)([c]2ccccc2-c2ccc(C(=O)OC)c[n+]21)[c]1n(CCCNC(=O)CCCC[C@@H]2SC[C@@H]4NC(=O)N[C@@H]42)cc[n+]1-c1cccc[n+]13.F[P-](F)(F)(F)(F)F [I-e] |  | 8.4 fold | 6.2 fold | 12.2 µM | 11.9 | 145 µM | 14.7 µM |  | <1 | >2.5 | >6.8 | > 100 µM | 21.6 µM |  | 5.0 | 107 µM | 5.6 µM | 17.2 | 96 µM | 11.1 | SI (vs MC3T3) MCF7 Dark (MCF7 breast cancer cells): 0.4; SI (vs NIH-3T3) MCF7 Dark (MCF7 breast cancer cells): >1.7; SI (vs NIH-3T3) A549 Blue (A549 lung cancer cells): 6.3; SI (vs NIH-3T3) A549 Dark (A549 lung cancer cells): >2.3
5 | F[P-](F)(F)(F)(F)F.O=C(CCCC[C@@H]1SC[C@@H]2NC(=O)N[C@@H]21)NCCCn1cc[n+]2[c]1[Ir-3]13([c]4ccccc4-c4sc5ccccc5[n+]41)([c]1ccccc1-c1sc4ccccc4[n+]13)[n+]1ccccc1-2 [I-k] | most selective effects under irradiated conditions | 12.9 fold | 12.2 fold | 1.5 µM | 9.9 | 14.9 µM | 1.8 µM | 17.3 | 1.0 | 2.9 | 14.4 | 25.9 µM | 1.2 µM | 2.1 | 10.2 | 12.2 µM | 0.97 µM | 19.3 | 18.7 µM | 20.7 | GI50 values, range over tumor cell lines, dark ([2]; in the dark): little toxicity against tumor cells under dark conditions; SI (vs MC3T3) MCF7 Dark (MCF7 breast cancer cells): 1.7; SI (vs MC3T3) Scaber Blue ([4]; blue light 458 nm): 10.7; SI (vs MC3T3) T24 Dark (T24 bladder cancer cells; dark): 1.4; SI (vs NIH-3T3) T24 Dark (T24 bladder cancer cells; dark): 4.1
6 | F[P-](F)(F)(F)(F)F.O=C(O)CC[C@H](NC(=O)N[C@@H](CCCCNC(=O)CCn1cc[n+]2[c]1[Ir-3]13([c]4cccc5ccc6ccc[n+]1c6c45)([c]1cccc4ccc5ccc[n+]3c5c14)[n+]1ccccc1-2)C(=O)O)C(=O)O [III-i] |  |  |  |  |  |  |  |  |  |  |  |  |  |  |  |  |  |  |  |  | GI50 [3, 5]: 8.7 µM; GI50 [3, 6]: 8.72 µM; Photosensitizing index (PI) [3]: 6.6; GI50 ([3]; PC3, dark, read-out: GI50): 57.2 µM; SI (vs MC3T3) PC-3 Blue ([3]; blue light 458 nm): 4.7; SI (vs MC3T3) PC-3 Dark ([3]; dark): 4.4; SI (vs NIH-3T3) PC-3 Dark ([3]; dark): >1.7; GI50 [3, 7]: 57.2 µM
